{
  "source": "patent US20260374739A1",
  "about": "“SMALL MOLECULAR WEIGHT CHEMICAL COMPOUND TO ANTAGONIZE EPH-EPHRIN TETRAMERIZATION AND INHIBIT BIDIRECTIONAL SIGNALING” (THE BOARD OF REGENTS OF THE UNIVERSITY OF TEXAS SYSTEM, priority 2022, published 2026)",
  "key": {"[1]": {"target": "T1, EphrinB2-EphB4 (Homo sapiens, UniProt P54760)", "T1 construct": "soluble human EphB1-His, EphB2-His, and EphB4-His ectodomains; commercially available human EphrinB1-Fc (EB1), EphrinB2-Fc (EB2), and EphrinB3-Fc (EB3) ectodomain proteins; purchased", "T1 sequence (P54760 16-539 limits assumed)": "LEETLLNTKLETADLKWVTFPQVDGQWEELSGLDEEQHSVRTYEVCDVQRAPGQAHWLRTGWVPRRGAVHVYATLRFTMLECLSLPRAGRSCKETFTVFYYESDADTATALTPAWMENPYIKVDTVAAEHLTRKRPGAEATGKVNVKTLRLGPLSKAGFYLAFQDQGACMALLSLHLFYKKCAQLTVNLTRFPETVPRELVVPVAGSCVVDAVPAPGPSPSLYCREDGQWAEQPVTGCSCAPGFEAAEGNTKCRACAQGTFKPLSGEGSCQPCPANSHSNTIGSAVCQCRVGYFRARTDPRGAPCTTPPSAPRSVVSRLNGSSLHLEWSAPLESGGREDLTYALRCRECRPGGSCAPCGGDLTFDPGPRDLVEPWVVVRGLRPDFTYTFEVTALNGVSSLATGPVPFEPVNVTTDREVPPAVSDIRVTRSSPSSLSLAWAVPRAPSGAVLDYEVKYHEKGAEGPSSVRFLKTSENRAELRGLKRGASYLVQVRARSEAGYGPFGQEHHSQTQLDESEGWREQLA", "assay": "Octet, immobilized human EphrinB2 binding to 50 nM soluble human EphB4", "protocol": "Studies were conducted to confirm that A20 chemicals can effectively target the human Eph/Ephrin proteins. Octet system was used to first characterize the biophysical interactions of the human B class Eph and Ephrin proteins, and then was tested to assess how A20 may disrupt the interactions. Since the human and rodent proteins are highly conserved, and essentially identical, with EphB2 sharing 99.5% identity between human and mouse, with only 5 of ~1,000 amino acids different, any species-specific differences were not anticipated. Therefore, commercially available human EphrinB1-Fc (EB1), EphrinB2-Fc (EB2), and EphrinB3-Fc (EB3) ectodomain proteins were sparsely immobilized onto biosensors and then exposed to 50 nM of soluble human EphB1-His, EphB2-His, and EphB4-His ectodomains for 800 sec association and 1,000 sec dissociation steps with a total of nine different interactions analyzed. In the absence of A20 chemical, the immobilized human EphrinB proteins bound to their appropriate human EphB target proteins; with EphrinB1 only bound EphB1 and EphB2, EphrinB2 bound all three EphB1, EphB2, and EphB4, and EphrinB3 only bound EphB1 and EphB2 (FIG. 19A-19B). […]"}, "[2]": {"target": "pre-formed EphrinB2-EphB2 tetramer (Homo sapiens, UniProt P29323)", "sequence (P29323 19-543 limits assumed)": "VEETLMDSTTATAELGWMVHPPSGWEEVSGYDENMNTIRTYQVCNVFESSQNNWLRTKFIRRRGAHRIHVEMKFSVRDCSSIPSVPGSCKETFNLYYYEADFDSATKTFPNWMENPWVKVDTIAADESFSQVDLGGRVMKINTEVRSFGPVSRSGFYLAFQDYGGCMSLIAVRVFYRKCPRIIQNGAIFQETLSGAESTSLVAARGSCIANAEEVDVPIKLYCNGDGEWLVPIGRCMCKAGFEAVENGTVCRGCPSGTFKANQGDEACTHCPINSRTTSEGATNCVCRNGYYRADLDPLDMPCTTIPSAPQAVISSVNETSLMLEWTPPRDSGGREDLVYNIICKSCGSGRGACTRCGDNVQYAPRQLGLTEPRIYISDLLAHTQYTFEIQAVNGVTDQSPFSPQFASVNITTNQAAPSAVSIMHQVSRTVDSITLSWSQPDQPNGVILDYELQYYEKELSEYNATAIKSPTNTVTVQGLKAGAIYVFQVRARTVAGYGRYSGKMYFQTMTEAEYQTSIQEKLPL", "assay": "Octet competition of pre-existing tetramers, human EphrinB2-EphB2", "format": "binding", "conditions": "2, 10, 50 μM", "protocol": "Biophysical studies were conducted to explore if A20 is able to disrupt pre-existing stable tetramers, focusing on interactions of immobilized human EphrinB2 binding to soluble human EphB1 and EphB2, and immobilized mouse EphB2 binding to mouse EphrinB2 (FIGS. 29A-29C). In these experiments, sensor-chip immobilized proteins were first exposed to 50 nM of their soluble target protein for an 800 sec association step and 1,000 sec dissociation step to generate pre-formed stable tetramers, which were then subjected to a 1,000 sec competition step that included either 0, 2, 10, or 50 μM concentrations of A20 salt compound. […] The ability of A20 to disrupt pre-existing tetramers was most pronounced for human EB2-EphB2 and cognate murine EphB2-EB2 experiments and indicated a gradual ongoing dose-dependent decline in tetramers throughout the 1,000 sec competition step (and beyond if allowed) and irrespective of whether the human EphrinB2 or murine EphB2 was the immobilized protein."}},
  "data": [
    {"smiles": "Oc1c(Br)cc(CN2CCOCC2)c2cccnc12", "note": "[Compound 5, 7-bromo-5-(morpholinomethyl)quinolin-8-ol]", "values": [
      {"measurement": "absolute IC50", "setting": "[1]; A20 salt up to 100 μM", "value": "absence of an absolute IC50"},
      {"measurement": "association slope", "setting": "[1]; in presence of A20, role: inhibitor, 5° without", "value": 3, "unit": "°"},
      {"measurement": "competition of pre-formed tetramers", "setting": "[2]", "value": "able to compete away in a dose-dependent manner a significant amount of the stable pre-formed tetramer complexes"}
    ]}
  ]
}
